Reference: PubChem BioAssay AID2060349 (Molecular Pharmacology Branch, DTP, NCI, 2025)

Tested on: 762968-020-R-J2-PDC spheroids viability
Assay: Anticancer human tumor 762968-020-R-J2-PDC patient-derived colon carcinoma cell line growth inhibition [TAK]
Details: spheroids with HUVEC and MSC; for IC50: curve of first compound; for viability, T/C: stronger effect = lower value
Source text: Combinatorial screen of targeted agents with TAK-243 and ipatasertib in multi-cell type tumor spheroids
A high-throughput screen of multi-cell type tumor spheroids was designed to identify active combinations of targeted small molecules and TAK-243 or ipatasertib. Complex spheroids include a stromal component modeled by human endothelial cells (HUVEC) and fibroblasts modeled by human mesenchymal stem cells (MSCs). The concentration ranges selected for each drug and investigational agent were based upon clinically achievable concentrations if the clinical Cmax of the agent was known.
Compounds. The drugs and investigational agents: TAK-243 (785004), ipatasertib (767898), everolimus (733504), selumetinib (741078), bortezomib (756655), trametinib (758246), ixazomib (758254), vemurafenib (761431), dabrafenib (764134), sapanisertib (764658), alpelisib (765974), and copanlisib (816437), were obtained from the National Cancer Institute (NCI) Developmental Therapeutics Program Chemical Repository. The FDA-approved anticancer drug set is available from the NCI Developmental Therapeutics Program. […] The stock solutions were prepared in dimethyl sulfoxide (DMSO, Sigma-Aldrich, St. Louis, MO, cat. D2650) at 800-fold the tested concentration and stored at -70 degrees C prior to their use. All drugs and investigational agents were tested over a range starting from a high concentration at or near the clinical Cmax and decreasing in half-log increments. If the clinical Cmax for an agent had not been determined, the highest concentration tested was 10 microM.
NCI60 Cell Culture. NCI60 cell lines were obtained from the NCI Developmental Therapeutics Program Tumor Repository. For each lot of cells, the Repository performed Applied Biosystems AmpFLSTR Identifiler testing with PCR amplification to confirm consistency with the published Identifier STR profile for each cell line. Cells were kept in continuous culture for no more than 20 passages. The optimal seeding densities for each of the cell lines at each time point assessed were determined prior to performing the concentration response studies. Briefly, the NCI60 human tumor lines were grown as monolayers in RPMI 1640 medium supplemented with 10% FBS and 2 mmol/L L-glutamine.
An additional 2 lines were from the NCI60 cell line panel including melanomas, MALME-3M and SK-MEL-2. Pooled donor human umbilical vein endothelial cells (HUVEC, Lonza, cat. CC-2519) and human mesenchymal stem cells (hMSC, Lonza, cat. PT-2501) were purchased from Lonza (Walkersville, MD).
PDMR cell lines were grown in complete medium (DC medium): Dulbecco's modified Eagle's medium (DMEM)/F12 supplemented with 5% fetal bovine serum (FBS), 2 mM L-glutamine, 100 U/mL penicillin and 100 µg/ml streptomycin, 0.4 µg/ml hydrocortisone, 10 ng/ml epidermal growth factor (EGF) recombinant human protein, 24 µg/mL adenine, and 0.1 mg/mL primocin. During culture from frozen stock vials, PDMR cells were cultured in the same medium containing 10 µM Y-27632 (see Table 3). The PDCs were cultured in complete DMEM/F12 media without 10 microM Y-27632 dihydrochloride for at least two passages prior to the screen. The pooled donor HUVEC and hMSC were cultured in endothelial cell growth medium 2 (PromoCell, Heidelberg, Germany, cat. C-22011) and mesenchymal stem cell growth medium 2 (PromoCell, cat. C-28009), respectively. For all experiments, HUVEC and hMSC were used at passages </=5.
For the pre-screen, cell seeding densities were determined from a titration spanning the range from 5,000 to 313 cells per well. The mct-spheroids including 60% malignant cells, 25% HUVEC and 15% MSC dispensed as a mixture into U-bottom Ultra-Low Attachment 384-well plates (Corning, NY)
High-throughput Drug Combination Screening.
Prior to their inoculation into 384-well plates, malignant cells, HUVEC, and hMSC were removed from T flasks using TrypLE express (Thermo Fisher Scientific, cat. 12605036) and harvested by centrifugation for 5 min at 233 x g. […]
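Further: spheroids exposed to drug for 7 days before readout.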
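Wherever viability, T/C is given: 100% = DMSO vehicle control wells.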

CC(C)CC(NC(=O)C(Cc1ccccc1)NC(=O)c1cnccn1)B(O)O (stereo not given) + CC(C)NCC(C(=O)N1CCN(c2ncnc3c2C(C)CC3O)CC1)c1ccc(Cl)cc1
IC50 (second compound 0.3 µM): > 0.01 µM | IC50 (second compound 0.949 µM): > 0.01 µM | IC50 (second compound 3 µM): > 0.01 µM | IC50 (second compound 9.49 µM): > 0.01 µM | IC50 (second compound 30 µM): > 0.01 µM | viability, T/C (second compound 0.3 µM, first compound 31.6 pM): 101% | viability, T/C (second compound 0.3 µM, first compound 0.0001 µM): 101% | viability, T/C (second compound 0.3 µM, first compound 0.000316 µM): 108% | viability, T/C (second compound 0.3 µM, first compound 0.001 µM): 102% | viability, T/C (second compound 0.3 µM, first compound 0.00316 µM): 98.3% | viability, T/C (second compound 0.3 µM, first compound 0.01 µM): 98.1% | viability, T/C (second compound 0.949 µM, first compound 31.6 pM): 103% | viability, T/C (second compound 0.949 µM, first compound 0.0001 µM): 102% | viability, T/C (second compound 0.949 µM, first compound 0.000316 µM): 96.1% | viability, T/C (second compound 0.949 µM, first compound 0.001 µM): 100% | viability, T/C (second compound 0.949 µM, first compound 0.00316 µM): 105% | viability, T/C (second compound 0.949 µM, first compound 0.01 µM): 85.5% | viability, T/C (second compound 3 µM, first compound 31.6 pM): 108% | viability, T/C (second compound 3 µM, first compound 0.0001 µM): 109% | viability, T/C (second compound 3 µM, first compound 0.000316 µM): 106% | viability, T/C (second compound 3 µM, first compound 0.001 µM): 98.8% | viability, T/C (second compound 3 µM, first compound 0.00316 µM): 106% | viability, T/C (second compound 3 µM, first compound 0.01 µM): 89% | viability, T/C (second compound 9.49 µM, first compound 31.6 pM): 98.5% | viability, T/C (second compound 9.49 µM, first compound 0.0001 µM): 98.7% | viability, T/C (second compound 9.49 µM, first compound 0.000316 µM): 99.3% | viability, T/C (second compound 9.49 µM, first compound 0.001 µM): 104% | viability, T/C (second compound 9.49 µM, first compound 0.00316 µM): 98.9% | viability, T/C (second compound 9.49 µM, first compound 0.01 µM): 97.5% | viability, T/C (second compound 30 µM, first compound 31.6 pM): 87.7% | viability, T/C (second compound 30 µM, first compound 0.0001 µM): 91.9% | viability, T/C (second compound 30 µM, first compound 0.000316 µM): 87.4% | viability, T/C (second compound 30 µM, first compound 0.001 µM): 85.4% | viability, T/C (second compound 30 µM, first compound 0.00316 µM): 95.3% | viability, T/C (second compound 30 µM, first compound 0.01 µM): 87.2%

Cn1cnc2c(F)c(Nc3ccc(Br)cc3Cl)c(C(=O)NOCCO)cc21 + CC(C)NCC(C(=O)N1CCN(c2ncnc3c2C(C)CC3O)CC1)c1ccc(Cl)cc1
IC50 (second compound 0.3 µM): 2.35 µM | IC50 (second compound 0.949 µM): > 3 µM | IC50 (second compound 3 µM): > 3 µM | IC50 (second compound 9.49 µM): > 3 µM | IC50 (second compound 30 µM): > 3 µM | viability, T/C (second compound 0.3 µM, first compound 0.00949 µM): 94.6% | viability, T/C (second compound 0.3 µM, first compound 0.03 µM): 95.5% | viability, T/C (second compound 0.3 µM, first compound 0.0949 µM): 89.6% | viability, T/C (second compound 0.3 µM, first compound 0.3 µM): 84.2% | viability, T/C (second compound 0.3 µM, first compound 0.949 µM): 69.9% | viability, T/C (second compound 0.3 µM, first compound 3 µM): 44.5% | viability, T/C (second compound 0.949 µM, first compound 0.00949 µM): 103% | viability, T/C (second compound 0.949 µM, first compound 0.03 µM): 97.5% | viability, T/C (second compound 0.949 µM, first compound 0.0949 µM): 87% | viability, T/C (second compound 0.949 µM, first compound 0.3 µM): 83.4% | viability, T/C (second compound 0.949 µM, first compound 0.949 µM): 74.8% | viability, T/C (second compound 0.949 µM, first compound 3 µM): 50.5% | viability, T/C (second compound 3 µM, first compound 0.00949 µM): 106% | viability, T/C (second compound 3 µM, first compound 0.03 µM): 97.7% | viability, T/C (second compound 3 µM, first compound 0.0949 µM): 95.2% | viability, T/C (second compound 3 µM, first compound 0.3 µM): 85.8% | viability, T/C (second compound 3 µM, first compound 0.949 µM): 72.2% | viability, T/C (second compound 3 µM, first compound 3 µM): 58.4% | viability, T/C (second compound 9.49 µM, first compound 0.00949 µM): 96.5% | viability, T/C (second compound 9.49 µM, first compound 0.03 µM): 83.7% | viability, T/C (second compound 9.49 µM, first compound 0.0949 µM): 80.6% | viability, T/C (second compound 9.49 µM, first compound 0.3 µM): 79.1% | viability, T/C (second compound 9.49 µM, first compound 0.949 µM): 66.3% | viability, T/C (second compound 9.49 µM, first compound 3 µM): 55.8% | viability, T/C (second compound 30 µM, first compound 0.00949 µM): 82.7% | viability, T/C (second compound 30 µM, first compound 0.03 µM): 85.3% | viability, T/C (second compound 30 µM, first compound 0.0949 µM): 83.2% | viability, T/C (second compound 30 µM, first compound 0.3 µM): 79% | viability, T/C (second compound 30 µM, first compound 0.949 µM): 70.5% | viability, T/C (second compound 30 µM, first compound 3 µM): 57.8%
